Laboratory results: patent US8293729B2 (Boehringer Ingelheim International GmbH, priority 2009, dated 2012)
Read-outs that look alike come from different tables or passages of the source.

Target: T1, human GPR119 receptor (Homo sapiens, UniProt Q8TDV5, S329A/T327A)
T1 construct: N-terminal leader […]; expressed in transfected cells
T1 sequence (Q8TDV5 with tags, fused parts or gaps T327A/S329A): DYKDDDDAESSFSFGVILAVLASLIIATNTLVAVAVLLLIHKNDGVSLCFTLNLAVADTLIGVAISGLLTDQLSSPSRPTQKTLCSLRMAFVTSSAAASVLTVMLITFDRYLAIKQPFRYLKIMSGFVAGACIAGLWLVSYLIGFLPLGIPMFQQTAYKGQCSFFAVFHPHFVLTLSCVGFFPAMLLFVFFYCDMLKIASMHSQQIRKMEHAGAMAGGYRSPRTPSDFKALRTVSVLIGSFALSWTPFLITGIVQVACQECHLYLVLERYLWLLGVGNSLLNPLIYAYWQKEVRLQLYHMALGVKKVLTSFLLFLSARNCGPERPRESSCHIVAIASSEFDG
Assay: cAMP assay (LANCE cAMP-384) in HEK293 cells stably expressing mutant human GPR119 receptor
Type: cell-based
Conditions: for activation at 10 µM: HEK293, 20 min
Experimental: Quantitative detection of cAMP accumulation from cells expressing human GPR119 receptor was achieved using Perkin Elmer's LANCE cAMP-384 Kit (Cat#AD0264) according to the manufacturer's protocol. Briefly, HEK293 cells stably expressing a mutant form of the human GPR119 receptor (Methionine 1 replaced with the amino acid sequence […] (SEQ ID NO: 1), and T327 & S329 changed to alanines) were grown to 50-70% confluency in cell culture media (DMEM, 10% heat inactivated Fetal Bovine Serum, 50 I.U./mL penicillin, 50 μg/mL streptomycin, 10 mM HEPES, 20 μg/mL G418 Sulfate). On the day of the assay, GPR119 stable HEK293 cells were lifted from the tissue culture plate and 1000 cells/well were incubated along with various concentrations of test compounds for 20 min at 37° C. Detection Buffer (50mM HEPES, 10mM calcium chloride, 0.35% Triton X-100, 1 mg/mL BSA) containing cAMP-specific antibody was then added to all wells and allowed to equilibrate in the dark for 10 minutes at room temperature. Upon equilibration, Detection Buffer containing europium-labeled cAMP tracer complex was added to all wells and allowed to react for 1 hour at room temperature. After 1 hour, bound europium-labeled cAMP tracer was measured using a Perkin Elmer ViewLux. The quantity of cAMP generated in each well was derived from a standard curve. EC50 was determined using nonlinear regression analysis of the cAMP values over a range of agonist concentration (12 points spanning the range from 30 μM to 100pM).
For some compounds for which no EC50 value could be determined, the efficacy is provided at a single concentration (10 μM) yielding % stimulation values.

[1] = the 44th table, compounds 77-1 to 77-14, read-out: EC50
[2] = the 19th table, unit inferred, read-out: EC 50
[3] = the 34th table, compounds 65-1 to 65-24, read-out: EC50
[4] = cAMP accumulation, HEK293 cells stably expressing mutant human GPR119, read-out: EC50
[5] = the 43rd table, compounds 75-1 to 75-38, read-out: EC50
[6] = the 36th table, compounds 66-1 to 66-51, read-out: EC50

## Cc1cc(C)nc(N2CCC(ON=C3CCN(c4ccc(S(C)(=O)=O)cc4F)CC3)CC2)n1 [Example 63-18]
The 32nd table, read-out: EC50
  EC50: > 10000 nM

## CCc1cnc(N2CCC(ON=C3CCN(c4cc(F)c(CC(=O)N5CC[C@@H](N)C5)cc4F)CC3)CC2)nc1 [Example 77-11]
[1]
  EC50: 47 nM

## CCc1cnc(N2CCC(ON=C3CCN(c4cc(F)c(C(=O)N5CC[C@@H](N)C5)cc4F)CC3)CC2)nc1 [Example 29-118]
[2]
  EC50: 201 nM

## CC(C)OC(=O)N1CCC(ON=C2CCN(c3cc(F)c(C(=O)N(C)C)cc3F)CC2)CC1 [Example 29-1, 4-[1-(4-Dimethylcarbamoyl-2,5-difluoro-phenyl)-piperidin-4-ylideneaminooxy]-piperidine-1-carboxylic acid isopropyl ester]
The 15th table, read-out: EC50
  EC50: 129 nM

## CS(=O)(=O)c1ccc(N2CCC(=NOC3CCN(C(=O)c4ccc(F)cc4)CC3)CC2)c(F)c1 [Example 65-22]
[3]
  EC50: 132 nM

## CCc1cnc(N2CCC(ON=C3CCN(c4cc(F)c(CC(=O)N5CCC(CN(C)C)CC5)cc4F)CC3)CC2)nc1 [Example 77-14]
[1]
  EC50: 6 nM

## CCN(CC)C(=O)CN1CCC(ON=C2CCN(c3ccc(S(C)(=O)=O)cc3F)CC2)CC1 [Example 65-1, N,N-Diethyl-2-{4-[1-(2-fluoro-4-methanesulfonyl-phenyl)-piperidin-4-ylideneaminooxy]-piperidin-1-yl}-acetamide]
[3]
  EC50: > 10000 nM

## Cc1ncccc1N1CCC(=NOC2CCN(C(=O)OC(C)C)CC2)CC1 [Example 4-1, Isopropyl 4-(2′-Methyl-2,3,5,6-tetrahydro-[1,3′]bipyridinyl-4-ylideneaminooxy)piperidine-1-carboxylate]
[4]
  EC50: 4800 nM

## CC(C)NC(=O)CN1CCC(ON=C2CCN(c3ccc(S(C)(=O)=O)cc3F)CC2)CC1 [Example 65-4]
[3]
  EC50: > 10000 nM

## CC(C)OC(=O)N1CCC(ON=C2CCN(c3cc(F)c(-c4ccc[nH]4)cc3F)CC2)CC1 [Example 27-7]
[4]
  EC50: 436 nM

## Cc1cc(CN2CCC(ON=C3CCN(c4ccc(S(C)(=O)=O)cc4F)CC3)CC2)oc1C [Example 66-34]
At 10 μM, printed in EC50 column of the 36th table, read-out: stimulation in % at 10 μM
  activation at 10 µM: 75%

## CC(C)(C)NC(=O)N1CCC(ON=C2CCN(c3ccc(S(C)(=O)=O)cc3F)CC2)CC1 [Example 65-11]
[3]
  EC50: 1040 nM

## CC(C)OC(=O)N1CCC(ON=C2CCN(c3ncc(-n4cccn4)cn3)CC2)CC1 [Example 51-5]
10 μM, the 28th table, read-out: stimulation in % at 10 μM
  activation at 10 µM: 96%

## CC(C)OC(=O)N1CCC(ON=C2CCN(c3ncc(C#N)c(N)n3)CC2)CC1 [Example 2-18]
[4]
  EC50: > 10000 nM

## Cc1nc(C)c(-c2cc(F)c(N3CCC(=NOC4CCN(C(=O)OC(C)C)CC4)CC3)cc2F)s1 [Example 27-25]
[4]
  EC50: > 10000 nM

## CS(=O)(=O)c1ccc(N2CCC(=NOC3CCN(c4ccc(Br)cn4)CC3)CC2)c(F)c1 [Example 63-20]
The 32nd table, read-out: EC50
  EC50: 387 nM

## C=C(C)OC(=O)N1CCC(ON=C2CCN(c3ccc(S(C)(=O)=O)cc3F)CC2)CC1 [Example 65-15]
[3]
  EC50: 64 nM

## CCc1cnc(N2CCC(ON=C3CCN(c4cc(F)c(C(=O)N5CCC[C@@H]5CN)cc4F)CC3)CC2)nc1 [Example 29-132]
[2]
  EC50: 114 nM

## Cc1nnn(Cc2cc(F)c(N3CCC(=NOC4CCN(C(=O)OC(C)C)CC4)CC3)cc2F)n1 [Example 14-16]
[4]
  EC50: 256 nM

## CC(C)OC(=O)N1CCC(ON=C2CCN(c3cc(F)c(CC(=O)N4CCNCC4)cc3F)CC2)CC1 [Example 75-25]
[5]
  EC50: 92 nM

## CC(C)OC(=O)N1CCC(ON=C2CCN(c3cc(F)c(C(=O)NCCN(C)C)cc3F)CC2)CC1 [Example 29-2]
The 15th table, read-out: EC50
  EC50: 450 nM

## CCc1ccc([C@H](C)N2CCC(ON=C3CCN(c4cc(F)c(S(C)(=O)=O)cc4F)CC3)CC2)cc1 [Example 66-63]
The 37th table, compounds 66-52 to 66-64, read-out: EC50
  EC50: 294 nM

## CCOC(=O)CC(=O)c1cc(F)c(N2CCC(=NOC3CCN(C(=O)OC(C)C)CC3)CC2)nc1Cl [Example 2-48]
[4]
  EC50: 146 nM

## Cc1nnnn1Cc1cnc(N2CCC(=NOC3CCN(C(=O)OC(C)C)CC3)CC2)c(F)c1 [Example 54-6]
The 30th table, read-out: EC50
  EC50: 1150 nM

## CN1CCCC1CCOC(=O)N1CCC(ON=C2CCN(c3ccc(S(C)(=O)=O)cc3F)CC2)CC1 (centres unmarked) [Example 64-27]
The 33rd table, read-out: EC50
  EC50: > 10000 nM

## CS(=O)(=O)c1ccc(N2CCC(=NOC3CCN(Cc4ccc(Br)cc4F)CC3)CC2)c(F)c1 [Example 66-44]
[6]
  EC50: 753 nM

## CC(C)OC(=O)N1CCC(ON=C2CCN(c3ncccc3F)CC2)CC1 [Example 2-37]
[4]
  EC50: 630 nM

## CS(=O)(=O)c1ccc(N2CCC(=NOC3CCN(Cc4ncco4)CC3)CC2)c(F)c1 [Example 66-20]
[6]
  EC50: > 10000 nM

## CCOC(=O)NCc1cc(F)c(N2CCC(=NOC3CCN(C(=O)OC(C)C)CC3)CC2)cc1F [Example 16-4]
[4]
  EC50: 70 nM

## CC(C)OC(=O)N1CCC(ON=C2CCN(c3cc(F)c(NS(C)(=O)=O)cc3F)CC2)CC1 [Example 44-1, 4-[1-(2,5-Difluoro-4-methanesulfonylamino-phenyl)-piperidin-4-ylideneaminooxy]-piperidine-1-carboxylic acid isopropyl ester]
[4]
  EC50: 170 nM

## CC(C)OC(=O)N1CCC(ON=C2CCN(c3ccc(C=O)cc3F)CC2)CC1 [Example 2-22]
[4]
  EC50: 318 nM

## CCc1cnc(N2CCC(ON=C3CCN(c4cc(F)c(C(=O)NCC5CCCN5)cc4F)CC3)CC2)nc1 (centres unmarked) [Example 29-121]
[2]
  EC50: 139 nM

## CC(C)OC(=O)N1CCC(ON=C2CCN(c3cc(F)c(C(=O)N4CCCC(CN5CCCCC5)C4)cc3F)CC2)CC1 (centres unmarked) [Example 29-56]
The 15th table, read-out: EC50
  EC50: 133 nM

## CC(C)OC(=O)N1CCC(ON=C2CCN(c3cc(F)c(Cn4cccn4)cc3F)CC2)CC1 [Example 14-1, 4-{1[2,5-Difluoro-4-(pyrazol-1-ylmethyl)-phenyl]-piperidin-4-ylideneaminooxy}-piperidine-1-carboxylic acid isopropyl ester]
[4]
  EC50: 38 nM

## CC(C)OC(=O)N1CCC(ON=C2CCN(c3ccnc(O)c3)CC2)CC1 [Example 2-4]
[4]
  EC50: > 10000 nM

## CC(C)OC(=O)N1CCC(ON=C2CCN(c3cc(F)c(CC(=O)NC[C@H]4CCCN4)cc3F)CC2)CC1 [Example 75-11]
[5]
  EC50: 161 nM

## CC(C)OC(=O)N1CCC(ON=C2CCN(c3cc(F)c(-c4cncnc4)cc3F)CC2)CC1 [Example 27-6]
[4]
  EC50: 243 nM

## CC(C)OC(=O)N1CCC(ON=C2CCN(c3cc(F)c(C(=O)N4CCC[C@H]4CN)cc3F)CC2)CC1 [Example 29-58]
The 15th table, read-out: EC50
  EC50: 189 nM

## CC(C)c1ccc(CN2CCC(ON=C3CCN(c4ccc(S(C)(=O)=O)cc4F)CC3)CC2)cc1 [Example 66-32]
[6]
  EC50: 332 nM

## CC(C)OC(=O)N1CCC(ON=C2CCN(c3cc(F)c(CC(=O)N4CCC(CN)CC4)cc3F)CC2)CC1 [Example 75-9]
[5]
  EC50: 144 nM

## CC(C)OC(=O)N1CCC(ON=C2CCN(c3cc(F)c(C4=NCCN4)cc3F)CC2)CC1 [Example 19-1, 4-{1-[4-(4,5-Dihydro-1H-imidazol-2-yl)-2,5-difluoro-phenyl]-piperidin-4-ylideneaminooxy}-piperidine-1-carboxylic acid isopropyl ester]
Single concentration 10 μM, given where no EC50 value could be determined, read-out: % stimulation at 10 μM
  activation at 10 µM: 53%

## Cc1cc(C(F)(F)F)cc(N2CCC(ON=C3CCN(c4ccc(S(C)(=O)=O)cc4F)CC3)CC2)n1 [Example 63-13]
The 32nd table, read-out: EC50
  EC50: 1490 nM

## CC(C)OC(=O)N1CCC(ON=C2CCN(c3cc(F)c(CC(=O)NCCN)cc3F)CC2)CC1 [Example 75-24]
[5]
  EC50: 410 nM

## CC(C)OC(=O)N1CCC(ON=C2CCN(c3ncc(S(C)(=O)=O)cc3F)CC2)CC1 [Example 46-1, 4 (5′-METHYLSULFONYL-3′-FLUORO-2,3,5,6-TETRAHYDRO-[1,2′]BIPYRIDINYL-4-YLIDENEAMINOOXY)-PIPERIDINE-1-CARBOXYLIC ACID ISOPROPYL ESTER]
The 26th table, read-out: EC50
  EC50: 131 nM

## CNC(=O)c1cc(F)c(N2CCC(=NOC3CCN(Cc4ccc(-c5cccnc5)cc4)CC3)CC2)cc1F [Example 66-66]
The 38th table, compounds 66-65 to 66-72, read-out: EC50
  EC50: 1270 nM

## CC(C)OC(=O)N1CCC(ON=C2CCN(c3cc(F)c(C#N)cc3F)CC2)CC1 [Example 2-2]
[4]
  EC50: 397 nM

## CC(C)OC(=O)N1CCC(ON=C2CCN(c3ccc(C=O)cc3)CC2)CC1 [Example 2-28]
[4]
  EC50: > 10000 nM
